Data reported in ChEMBL document CHEMBL1139057, “Rotenoids and flavonoids with anti-invasion of HT1080, anti-proliferation of U937, and differentiation-inducing activity in HL-60 from Erycibe expansa” (Bioorg Med Chem, 2007).
Active and inactive are the calls of the source. The calls are words filed in the database; no cut-off is given here.

Columns and labels:
HT-1080 [1] = test: Inhibition of invasion of human HT1080 cells at 3 uM after 24 hrs; assay type: functional; details: HT-1080, 24 h
HT-1080 [2] = test: Inhibition of invasion of human HT1080 cells at 10 uM after 24 hrs; assay type: functional; details: HT-1080, 24 h
HT-1080 [3] = test: Inhibition of invasion of human HT1080 cells at 30 uM after 24 hrs; assay type: functional; details: HT-1080, 24 h
HT-1080 [4] = test: Antiproliferative activity against human HT1080 cells at 3 uM after 24 hrs by MTT assay; assay type: functional; details: HT-1080, 24 h
HT-1080 [5] = test: Antiproliferative activity against human HT1080 cells at 10 uM after 24 hrs by MTT assay; assay type: functional; details: HT-1080, 24 h
HT-1080 [6] = test: Antiproliferative activity against human HT1080 cells at 30 uM after 24 hrs by MTT assay; assay type: functional; details: HT-1080, 24 h
HT-1080 [7] = test: Antiproliferative activity against human HT1080 cells at 3 uM after 48 hrs by MTT assay; assay type: functional; details: HT-1080, 48 h
HT-1080 [8] = test: Antiproliferative activity against human HT1080 cells at 10 uM after 48 hrs by MTT assay; assay type: functional; details: HT-1080, 48 h
HT-1080 [9] = test: Antiproliferative activity against human HT1080 cells at 30 uM after 48 hrs by MTT assay; assay type: functional; details: HT-1080, 48 h
HT-1080 [10] = test: Antiproliferative activity against human HT1080 cells at 3 uM after 72 hrs by MTT assay; assay type: functional; details: HT-1080, 72 h
HT-1080 [11] = test: Antiproliferative activity against human HT1080 cells at 10 uM after 72 hrs by MTT assay; assay type: functional; details: HT-1080, 72 h
HT-1080 [12] = test: Antiproliferative activity against human HT1080 cells at 30 uM after 72 hrs by MTT assay; assay type: functional; details: HT-1080, 72 h
HT-1080 [13] = test: Antiproliferative activity against human HT1080 cells at 3 uM after 24 hrs by calcein-AM assay; assay type: functional; details: HT-1080, 24 h
HT-1080 [14] = test: Antiproliferative activity against human HT1080 cells at 10 uM after 24 hrs by calcein-AM assay; assay type: functional; details: HT-1080, 24 h
HT-1080 [15] = test: Antiproliferative activity against human HT1080 cells at 30 uM after 24 hrs by calcein-AM assay; assay type: functional; details: HT-1080, 24 h
HT-1080 [16] = test: Antiproliferative activity against human HT1080 cells at 3 uM after 48 hrs by calcein-AM assay; assay type: functional; details: HT-1080, 48 h
HT-1080 [17] = test: Antiproliferative activity against human HT1080 cells at 10 uM after 48 hrs by calcein-AM assay; assay type: functional; details: HT-1080, 48 h
HT-1080 [18] = test: Antiproliferative activity against human HT1080 cells at 30 uM after 48 hrs by calcein-AM assay; assay type: functional; details: HT-1080, 48 h
HT-1080 [19] = test: Antiproliferative activity against human HT1080 cells at 3 uM after 72 hrs by calcein-AM assay; assay type: functional; details: HT-1080, 72 h
HT-1080 [20] = test: Antiproliferative activity against human HT1080 cells at 10 uM after 72 hrs by calcein-AM assay; assay type: functional; details: HT-1080, 72 h
HT-1080 [21] = test: Antiproliferative activity against human HT1080 cells at 30 uM after 72 hrs by calcein-AM assay; assay type: functional; details: HT-1080, 72 h
HL-60 [22] = test: […] human HL60 cells assessed NBT positive cells at 10 uM after 72 hrs by NBT reduction test; assay type: functional
HL-60 [23] = test: […] human HL60 cells assessed NBT positive cells at 30 uM after 72 hrs by NBT reduction test; assay type: functional
HL-60 [24] = test: Induction of human HL60 cells differentiation assessed as number of cells at 10 uM after 72 hrs by NBT reduction test; assay type: functional
HL-60 [25] = test: Induction of human HL60 cells differentiation assessed as number of cells at 20 uM after 72 hrs by NBT reduction test; assay type: functional
U-937 [26] = test: Antiproliferative activity against human U937 cells after 24 hrs by WST-8 assay; assay type: functional, cell-based; details: U-937, 24 h
U-937 [27] = test: Antiproliferative activity against human U937 cells after 48 hrs by WST-8 assay; assay type: functional, cell-based; details: U-937, 48 h
U-937 [28] = test: Antiproliferative activity against human U937 cells after 72 hrs by WST-8 assay; assay type: functional, cell-based; details: U-937, 72 h
HT-1080 [29] = test: Inhibition of invasion of human HT1080 cells at 1 uM after 24 hrs; assay type: functional; details: HT-1080, 24 h
HT-1080 [30] = test: Antiproliferative activity against human HT1080 cells at 1 uM after 24 hrs by MTT assay; assay type: functional; details: HT-1080, 24 h
HT-1080 [31] = test: Antiproliferative activity against human HT1080 cells at 1 uM after 48 hrs by MTT assay; assay type: functional; details: HT-1080, 48 h
HT-1080 [32] = test: Antiproliferative activity against human HT1080 cells at 1 uM after 72 hrs by MTT assay; assay type: functional; details: HT-1080, 72 h
HT-1080 [33] = test: Antiproliferative activity against human HT1080 cells at 1 uM after 24 hrs by calcein-AM assay; assay type: functional; details: HT-1080, 24 h
HT-1080 [34] = test: Antiproliferative activity against human HT1080 cells at 1 uM after 48 hrs by calcein-AM assay; assay type: functional; details: HT-1080, 48 h
HT-1080 [35] = test: Antiproliferative activity against human HT1080 cells at 1 uM after 72 hrs by calcein-AM assay; assay type: functional; details: HT-1080, 72 h
HT-1080 [36] = test: Inhibition of proMMP2 production in human HT1080 cells by gelatin zymography analysis; assay type: functional, cell-based
HT-1080 [37] = test: Inhibition of proMMP9 production in human HT1080 cells by gelatin zymography analysis; assay type: functional, cell-based

SMILES	inhibition at 3 µM (HT-1080 [1]) [%]	inhibition at 10 µM (HT-1080 [2]) [%]	inhibition at 30 µM (HT-1080 [3]) [%]	inhibition at 3 µM (HT-1080 [4]) [%]	inhibition at 10 µM (HT-1080 [5]) [%]	inhibition at 30 µM (HT-1080 [6]) [%]	inhibition at 3 µM (HT-1080 [7]) [%]	inhibition at 10 µM (HT-1080 [8]) [%]	inhibition at 30 µM (HT-1080 [9]) [%]	inhibition at 3 µM (HT-1080 [10]) [%]	inhibition at 10 µM (HT-1080 [11]) [%]	inhibition at 30 µM (HT-1080 [12]) [%]	inhibition at 3 µM (HT-1080 [13]) [%]	inhibition at 10 µM (HT-1080 [14]) [%]	inhibition at 30 µM (HT-1080 [15]) [%]	inhibition at 3 µM (HT-1080 [16]) [%]	inhibition at 10 µM (HT-1080 [17]) [%]	IC50 (U-937 [26]) [µM]	IC50 (U-937 [27]) [µM]	IC50 (U-937 [28]) [µM]	further results
O=c1c(-c2ccc(O)cc2)coc2cc(O)cc(O)c12 [GENISTEIN]	5.5	35.1	43.2	-6.2	-1.2	12.5	3.8	9.3	25.3	-0.9	1.7	22.5	2.8	6.1	17.3	2	5.1	> 100	72	48	inhibition at 30 µM (HT-1080 [18]): 17.6%; inhibition at 3 µM (HT-1080 [19]): 1.5%; inhibition at 10 µM (HT-1080 [20]): 6%; inhibition at 30 µM (HT-1080 [21]): 17.2%; Activity (HL-60 [22]): 4.1%; Activity (HL-60 [23]): 11.2%; Activity (HL-60 [24]): 8.3 10^5/ml; Activity (HL-60 [25]): 5.3 10^5/ml
O=c1cc(-c2ccc(O)c(O)c2)oc2cc(O)cc(O)c12 [LUTEOLIN]																		36	28	20	
Oc1ccc2c(c1)OC[C@H]1c3cc4c(cc3O[C@@H]21)OCO4 [MAACKIAIN]																		> 100	> 100	> 100	
O=c1c(-c2ccc(O)c(O)c2)coc2cc(O)cc(O)c12 [OROBOL]																		73	> 100	> 100	
CC(=O)O[C@H]1C(=O)[C@@]2(C)[C@H]([C@H](OC(=O)c3ccccc3)[C@]3(O)C[C@H](OC(=O)[C@H](O)[C@@H](NC(=O)c4ccccc4)c4ccccc4)C(C)=C1C3(C)C)[C@]1(OC(C)=O)CO[C@@H]1C[C@@H]2O [PACLITAXEL]	79.8	87.8	89.2	12.6	12.2	10.3	48.7	50	50.3	79.8	81.4	79.9	10.8	12.4	10.3	64.4	70.9				inhibition at 1 µM (HT-1080 [29]): 50.5%; inhibition at 1 µM (HT-1080 [30]): 4.7%; inhibition at 1 µM (HT-1080 [31]): 43.7%; inhibition at 1 µM (HT-1080 [32]): 65.6%; inhibition at 1 µM (HT-1080 [33]): -0.5%; inhibition at 1 µM (HT-1080 [34]): 46.2%; inhibition at 30 µM (HT-1080 [18]): 70%; inhibition at 1 µM (HT-1080 [35]): 59.8%; inhibition at 3 µM (HT-1080 [19]): 87%; inhibition at 10 µM (HT-1080 [20]): 87.6%; inhibition at 30 µM (HT-1080 [21]): 87.7%
COc1ccc2c(c1)OC[C@H]1c3cc4c(cc3O[C@@H]21)OCO4 [PTEROCARPIN]																		> 100	> 100	> 100	
C=C(C)[C@H]1Cc2c(ccc3c2O[C@@H]2COc4cc(OC)c(OC)cc4[C@]2(O)C3=O)O1 [ROTENOLONE]	30.6	64.9	54.6	0.8	2.4	5.5	96.9	96.4	96	98.7	98.3	98.5	21.8	24.4	29.2	50.6	47.6	3.6	0.07	0.09	inhibition at 1 µM (HT-1080 [29]): 3.3%; inhibition at 1 µM (HT-1080 [30]): -2%; inhibition at 1 µM (HT-1080 [31]): 95.8%; inhibition at 1 µM (HT-1080 [32]): 98.3%; inhibition at 1 µM (HT-1080 [33]): 17.2%; inhibition at 1 µM (HT-1080 [34]): 52.2%; inhibition at 30 µM (HT-1080 [18]): 53.6%; inhibition at 1 µM (HT-1080 [35]): 97.3%; inhibition at 3 µM (HT-1080 [19]): 97.1%; inhibition at 10 µM (HT-1080 [20]): 94.9%; inhibition at 30 µM (HT-1080 [21]): 95%; Activity (HT-1080 [36]): Active; Activity (HT-1080 [37]): Active
C=C(C)[C@H]1Cc2c(ccc3c2O[C@@H]2COc4cc(OC)c(OC)cc4[C@@H]2C3=O)O1 [ROTENONE]	19.6	53.7	51.6	9.9	9.5	0.7	97.5	97.3	96.9	98.5	98.4	97.8	17.1	23	26.8	44.2	51	13	0.2	0.07	inhibition at 1 µM (HT-1080 [29]): 0.6%; inhibition at 1 µM (HT-1080 [30]): 9.4%; inhibition at 1 µM (HT-1080 [31]): 95.9%; inhibition at 1 µM (HT-1080 [32]): 98.6%; inhibition at 1 µM (HT-1080 [33]): 16.2%; inhibition at 1 µM (HT-1080 [34]): 35.2%; inhibition at 30 µM (HT-1080 [18]): 40.4%; inhibition at 1 µM (HT-1080 [35]): 97.4%; inhibition at 3 µM (HT-1080 [19]): 95.3%; inhibition at 10 µM (HT-1080 [20]): 91.4%; inhibition at 30 µM (HT-1080 [21]): 93.4%; Activity (HT-1080 [36]): Active; Activity (HT-1080 [37]): Active
COc1cc2c(cc1OC)[C@@H]1COc3cc(O)ccc3[C@@H]1O2 [SECUNDIFLOROL I]																		> 100	> 100	> 100	
CC(C)=CCc1c(O)cc2occ(-c3ccc(O)cc3)c(=O)c2c1O [WIGHTEONE]																		28	35	32	
